Measurements from US6890959B2, “Aminomethyl-phenyl-cyclohexanone derivatives” (Gruenenthal GmbH, priority 2000, dated 2005).
Counter-ions that a name gives are not always drawn.

What follows are compounds tested on Male NMRI mice (assay: phenylquinone-induced writhing test in mice). Details: 10 mg/kg i.v.; phenylquinone i.p. 10 minutes after compound; writhing counted 5-20 minutes after phenylquinone.
Type: in vivo
Experimental: The antinociceptive activity of the compounds according to the invention was investigated in mice in a phenylquinone-induced writhing test, as modified by I. C. Hendershot, J. Forsaith, J. Pharmacol. Exp. Ther. 125, 237-240 (1959). Male NMRI mice weighing 25-30 g were used. Groups of 10 animals per substance dose received 0.3 ml/mouse of a 0.02% aqueous solution of phenylquinone (phenylbenzoquinone, Sigma, Deisenhofen; preparation of the solution with the addition of 5% ethanol and storage in a water bath at 45° C.) administered intraperitoneally 10 minutes after intravenous administration of a compound according to the invention. The animals were placed individually in observation cages. The number of pain-induced stretching movements (so-called writhing reactions, i.e. straightening of the body with stretching of the hind extremities) was counted by means of a push-button counter for 5-20 minutes after the administration of phenylquinone. Animals which received physiological saline solution i.v. and […]. were also used as a control.
All substances were tested in a standard dose of 10 mg/kg. The percentage inhibition (% inhibition) of the writhing reactions by a substance was calculated according to the following equation: % inhibition=100−[WR treated animals/WR control×100]

In order of rising “% inhibition of the writhing reactions” value:
1. rac-trans-[4-dimethylaminomethyl-3-(3-methoxy-phenyl)-cyclohexanone]hydrochloride [Compound 3]  92%
2. COc1cccc(C2CC(=O)CCC2CN(C)C)c1 (racemic) [Compound 2, rac-cis-[4-Dimethylaminomethyl-3-(3-methoxy-phenyl)-cyclohexanone]hydrochloride]  96%
3. rac-cis-[4-Dimethylaminomethyl-3-(3-hydroxy-phenyl)-cyclohexanone [Compound 4]  100%
